Data from the NIST ThermoML archive (doi:10.1016/j.jct.2011.06.002).
± gives the expanded uncertainty stated by the source.

Settings: for viscosity: 101.33 kPa, Liquid, Falling or rolling sphere viscometry

viscosity (348.15 K): 108.86 ± 3.6 mPa·s
viscosity (351.15 K): 92.99 ± 2.8 mPa·s
viscosity (353.15 K): 84.17 ± 2.3 mPa·s
viscosity (358.15 K): 66.28 ± 1.6 mPa·s
Normal melting temperature (Crystal, DTA): 74.16 ± 2 °C
SMILES: Cl.Cn1ccnc1 [1-methylimidazolium chloride]
